Laboratory results taken from US7592009B2, “Polypeptide ligands for targeting cartilage and methods of use thereof” (Ecole Polytechnique Federale de Lausanne (EPFL), priority 2006, dated 2009).
Where no end group is shown, it is not given here.

T1: MMP-2 (Homo sapiens, UniProt P08253)
T1 sequence (P08253 110-660): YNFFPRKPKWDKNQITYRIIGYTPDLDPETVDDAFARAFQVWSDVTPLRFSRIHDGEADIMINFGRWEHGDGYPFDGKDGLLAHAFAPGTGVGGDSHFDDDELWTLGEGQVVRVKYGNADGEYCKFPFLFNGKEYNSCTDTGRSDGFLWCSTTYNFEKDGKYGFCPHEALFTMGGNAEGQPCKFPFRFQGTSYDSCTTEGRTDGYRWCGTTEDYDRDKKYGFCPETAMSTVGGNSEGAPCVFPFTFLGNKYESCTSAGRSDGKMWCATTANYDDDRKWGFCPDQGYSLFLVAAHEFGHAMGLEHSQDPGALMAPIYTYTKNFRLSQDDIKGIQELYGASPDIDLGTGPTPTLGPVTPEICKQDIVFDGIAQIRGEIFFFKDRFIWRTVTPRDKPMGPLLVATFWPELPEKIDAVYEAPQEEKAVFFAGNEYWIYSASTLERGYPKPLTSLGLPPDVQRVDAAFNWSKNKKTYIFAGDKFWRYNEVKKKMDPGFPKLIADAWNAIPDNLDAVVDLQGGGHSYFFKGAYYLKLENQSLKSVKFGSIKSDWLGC

B1: trTIMP-3: fusion protein of N-TIMP-3 (Cys24 to Asn 143) containing WYRGRL at the C-terminus (protein)
chain: CTCSPSHPQDAFCNSDIVIRAKVVGKKLVKEGPFGTLVYTIKQMKMYRGFSKMPHVQYIHTEASESLCGLKLEVNKYQYLLTGRVYEGKMYTGLCNFVERWDHLTLSQRKGLNYRYHLGCGGGWYRGRL

How the values were obtained:
[1] = test system: articular cartilage; assay: Competitive binding of free polypeptide or nanoparticles against phage clone C1-3 on articular cartilage; set-up: species or system bovine; conditions: for decrease of phage titers versus control without polypeptide: 10 μM polypeptide, FIG. 3
Protocol: Cartilage grafts were harvested with 8 and 4 mm biopsy cutters (two-sided surface 1 cm^2 and 0.25 cm^2). A slice with the intact articular surface was removed to expose the phages only to the cartilage matrix below the surface. Affinity selection was preformed in polystyrene 48-well plates, which were blocked for nonspecific adhesion with a blocking solution containing 1% BSA for 2 hours prior to screening. A total of 5 screening rounds was carried out. In the first round 10^13 and in subsequent rounds 10^12 phage virions per ml were exposed to the cartilage graft, washed with PBS/Tween 20 and eluted at low pH. While the first round was supposed to give a high yield at low stringency, subsequent rounds were carried out with increasing stringency to select stronger binders. Conditions were increased from 4 hours of binding at RT and washing with PBS/0.1% Tween to 30 minutes binding at 37° C. with 220 RPM, washing with PBS/1% Tween 20 and the cartilage surface decreased from 1 cm^2 to 0.25 cm^2 in round five. Eluted phage was amplified overnight in E. coli strain TG1 in 2×YT medium and purified by two times PEG/NaCl (2M, 25%) precipitation. In the first round of screening, negative screens against the intact articular surface as well as synovial fluid (50% diluted in PBS to lower viscosity) were carried out in order to eliminate phages binding to these targets. Quantitative titer counts were obtained by spot titering of 15 μl of phage/bacterial culture onto LB-agar/tetracyclin plates and are given in transducing units(TU)/ml. The polypeptide sequences of affinity selected phage specific to the articular cartilage matrix was determined by DNA sequencing (Microsynth AG, Balgach, Switzerland) using the sequencing primer 5′-CAT GTA CCG TAA CAC TGA G (SEQ ID NO:5). Binding specificity was determined by exposing selected phage clones (10^8 TU/ml) to articular cartilage (0.25 cm^2) with and without synovial fluid, to synovial membrane (3×4 mm, 0.24 cm^2) and to polystyrene after blocking. […] The phage clones were identified by DNA sequencing and the corresponding titer counts calculated. For comepetetive binding against free polypeptide or nanoparticles and to obtain a dose-response curve, 10^8 TU/ml of phage and its free polypeptide in different concentrations or nanoparticles were mixed, exposed to articular cartilage and titer counts determined. […]
Based on affinity selection and the binding assays reported herein, the 6-mer polypeptide insert WYRGRL (SEQ ID NO:1) of clone C1-3 as well as its scrambled mismatch YRLGRW (SEQ ID NO:6) were synthesized on solid resin using standard Fmoc chemistry. […] A dose-response curve was determined by serial dilutions of the polypeptide ranging from 50 nM to 10 μM and mixing them with 10^8 TU/ml of phage. […]

[2] = biological target: T1, MMP-2; assay: MMP-2 zymography; assay type: biochemical

Molecule | decrease of phage titers versus control without polypeptide [1] | IC50 ([1]; polypeptide 50 nM to 10 μM mixed with 10^8 TU/ml phage C1-3, estimated from curve in FIG. 2, read-out: IC50, inhibition of cartilage binding of phage C1-3) | decrease of titer counts of recovered phage over the dose-response curve ([1]; polypeptide increased from 50 nM to 10 μM, FIG. 2) | inhibition of MMP-2 activity ([2]; equimolar amount of trTIMP-3) | activity of the purified protein ([2]; inferred from MMP-2 zymography at equimolar amount)
WYRGRLC [synthetic polypeptide: insert WYRGRL of clone C1-3 with a cysteine added to the C-terminus] | ~100 fold | ~0.2 µM | two orders of magnitude | – | –
YRLGRWC (Ac-YRLGRWC) [scrambled mismatch polypeptide of WYRGRL with C-terminal cysteine, reference compound] | did not result in a significant decrease in phage titer | – | – | – | –
B1 | – | – | – | completely inhibits | ~100%
